pIC50, pKi: −log10 of the molar value.

The target in experiment [1] is memapsin 2 (Homo sapiens, UniProt P56817). The experiment in a line: Inhibition of memapsin 2 beta-secretase activity (fluorogenic substrate FS-2). The format is biochemical. The conditions noted are these: pH 4, 37° C., read-out: M2 Ki. How it is done: Potency of compounds were determined by measurement of their inhibition of memapsin 2 activity toward a fluorescent substrate. Kinetic inhibition experiments were performed using the procedure as described in Ermolieff, et al. (Biochemistry 39:12450-12456 (2000), the teachings of which are incorporated hereby in their entirety). Briefly, assays were performed at pH 4, 37° C., by pre-incubation of memapsin 2 enzyme with compound for 20 minutes. Activity measurements were initiated by addition of a fluorogenic substrate FS-2 (Bachem Americas, Torrance, Calif.) MCA-SEVNLDAEFR-DNP (SEQ ID NO.: 2). The substrate was derived from 10 amino acids of the human amyloid precursor protein (APP), with the Swedish variant amino acids at the beta-secretase cleavage site. The terminal amino acid was modified from arginine to lysine to facilitate derivatization with a functional group for detection by autofluorescence. The amino acid sequence of the “core” peptide of the substrate is SEVNLDAEFK (SEQ ID NO.: 3). The amino terminus was derivatized with (7-methoxycoumarin-4-yl)acetyl (MCA), and the epsilon amine of the lysine side chain of the terminal residue (K in sequence SEVNLDAEFK (SEQ ID NO.: 3)) was derivatized with 2,4-dinitorphenyl (DNP).
Chain of memapsin 2 (Homo sapiens, UniProt P56817) (P56817 46-501): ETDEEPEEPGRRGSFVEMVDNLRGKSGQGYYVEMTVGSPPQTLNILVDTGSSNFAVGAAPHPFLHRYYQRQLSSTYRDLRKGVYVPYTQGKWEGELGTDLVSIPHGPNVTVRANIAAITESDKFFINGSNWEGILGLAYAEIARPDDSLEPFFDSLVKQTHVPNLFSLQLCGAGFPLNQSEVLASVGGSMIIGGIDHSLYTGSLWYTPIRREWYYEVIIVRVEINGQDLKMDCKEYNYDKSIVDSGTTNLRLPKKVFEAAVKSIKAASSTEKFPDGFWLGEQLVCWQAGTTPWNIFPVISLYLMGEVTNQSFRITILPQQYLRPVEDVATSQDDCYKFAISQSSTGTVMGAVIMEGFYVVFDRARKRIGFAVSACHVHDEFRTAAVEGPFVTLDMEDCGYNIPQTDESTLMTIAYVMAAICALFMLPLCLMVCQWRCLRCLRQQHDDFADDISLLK

Experiment [2] has as its target T1, memapsin 2 (Cricetulus griseus, UniProt G3IAK4).
T1 construct: endogenous in cells; host or cells: Chinese hamster ovary cells over-expressing human APP695 (London + Swedish)
The experiment in a line: Cellular Aβ IC50 determination (Aβ40 sandwich ELISA). The conditions noted are these: CHO cells over-expressing human APP695 with London and Swedish mutations, 24 h, read-out: M2 IC50. The format is cell-based, Chinese hamster. How it is done: The potency of compounds against memapsin 2 activity was determined in a cellular assay of Aβ production. […] Chinese hamster ovary cells that over-express human APP695 with the London and Swedish mutations were seeded in multi-well plates at 10% confluency. Compounds are dissolved in DMSO to concentrations near 1 mM, and diluted into culture media to a final concentration near 4 μM (final 0.4% DMSO). Compounds were diluted serially and applied to cells in multi-well plates 48 h after seeding. Incubation was continued in 5% CO2 at 37° C. for 24 h. Aliquots were removed and assayed for […] using a sandwich ELISA (BioSource International). Amount of Aβ40 over the range of concentration of compounds, relative to control incubations, were fit to a 4-parameter IC50 model.

T1 sequence (G3IAK4 22-501): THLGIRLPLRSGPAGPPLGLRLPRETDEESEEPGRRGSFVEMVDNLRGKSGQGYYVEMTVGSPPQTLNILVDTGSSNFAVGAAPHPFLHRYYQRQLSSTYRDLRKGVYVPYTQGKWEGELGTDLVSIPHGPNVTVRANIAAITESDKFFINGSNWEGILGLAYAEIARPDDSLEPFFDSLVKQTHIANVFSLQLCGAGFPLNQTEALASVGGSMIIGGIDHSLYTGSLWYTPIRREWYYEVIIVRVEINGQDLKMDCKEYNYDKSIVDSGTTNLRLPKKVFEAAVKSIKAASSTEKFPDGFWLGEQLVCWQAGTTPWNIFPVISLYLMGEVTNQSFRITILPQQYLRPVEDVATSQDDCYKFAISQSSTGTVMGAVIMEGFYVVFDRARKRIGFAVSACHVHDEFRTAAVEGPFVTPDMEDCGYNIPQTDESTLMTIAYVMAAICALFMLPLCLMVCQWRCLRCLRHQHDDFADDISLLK

One may read the pKi as the negative decadic logarithm of the Ki, by convention in mol/L. The pIC50 is the negative decadic logarithm of the IC50, by convention in mol/L. In the case of `Cc1coc([C@H]2CCCN2C(=O)c2cc(C(=O)N[C@@H](Cc3ccccc3)[C@H](O)[C@H]3CCCN3)cc(-c3cnccn3)c2)n1` [1-21, N-((1R,2S)-1-hydroxy-3-phenyl-1-((R)-pyrrolidin-2-yl)propan-2-yl)-3-((R)-2-(4-methyloxazol-2-yl)pyrrolidine-1-carbonyl)-5-(pyrazin-2-yl)benzamide], the pKi in experiment [1] was > 6.60. In addition, in experiment [2], the pIC50 was > 6.30.
As to `Cc1cc(C(=O)N[C@@H](Cc2ccccc2)[C@H](O)[C@H]2CCCN2C(=O)OC(C)(C)C)cc(C(=O)N2CCC[C@@H]2c2nc(C)co2)c1` [1-6, (R)-tert-butyl 2-((1S,2S)-1-hydroxy-2-(3-methyl-5-((R)-2-(4-methyloxazol-2-yl)pyrrolidine-1-carbonyl)benzamido)-3-phenylpropyl)pyrrolidine-1-carboxylate], the pKi in experiment [1] is < 6.12. Also, the pIC50 in experiment [2] is < 6.00.
Turning to `Cc1csc([C@H]2CCCN2C(=O)c2cccc(C(=O)N[C@@H](Cc3ccccc3)[C@H](O)[C@@H]3CCCN3)c2)n1` [1-48, N-((1R,2S)-1-hydroxy-3-phenyl-1-((S)-pyrrolidin-2-yl)propan-2-yl)-3-((R)-2-(4-methylthiazol-2-yl)pyrrolidine-1-carbonyl)benzamide], in experiment [1], the pKi is < 6.12. The pIC50 in experiment [2] was < 6.00.
The like results for `Cc1csc(CN(C)C(=O)c2cccc(C(=O)N[C@@H](Cc3ccccc3)[C@H](O)[C@H]3CCCN3)c2)n1` [1-2, N1-((1R,2S)-1-hydroxy-3-phenyl-1-((R)-pyrrolidin-2-yl)propan-2-yl)-N3-methyl-N3-((4-methylthiazol-2-yl)methyl)isophthalamide] were, in that order, 6.12 to 6.60 and < 6.00.
With `Cc1csc(CN(C)C(=O)c2cccc(C(=O)N[C@@H](Cc3ccccc3)[C@H](O)[C@H]3CCCN3C(=O)OC(C)(C)C)c2)n1` [1-1, (R)-tert-butyl 2-((1S,2S)-1-hydroxy-2-(3-(methyl((4-methylthiazol-2-yl)methyl)carbamoyl)benzamido)-3-phenylpropyl)pyrrolidine-1-carboxylate], in experiment [1], the pKi is < 6.12. The pIC50 in experiment [2] is < 6.00.
With `Cc1csc(CN(C)C(=O)c2cc(C(=O)N[C@@H](Cc3ccccc3)[C@H](O)[C@H]3CCCN3)cc(N(C)S(C)(=O)=O)c2)n1` [1-27, N1-((1R,2S)-1-hydroxy-3-phenyl-1-((R)-pyrrolidin-2-yl)propan-2-yl)-N3-methyl-5-(N-methylmethylsulfonamido)-N3-((4-methylthiazol-2-yl)methyl)isophthalamide], the negative logarithm of the Ki (pKi) in experiment [1] was 6.12 to 6.60. In addition, the pIC50 in experiment [2] was > 6.30.
As for `Cc1csc([C@H]2CCCN2C(=O)c2cc(C(=O)N[C@@H](Cc3ccccc3)[C@H](O)[C@H]3CCCN3)cc(C3CC3)c2)n1` [1-50, 3-cyclopropyl-N-((1R,2S)-1-hydroxy-3-phenyl-1-((R)-pyrrolidin-2-yl)propan-2-yl)-5-((R)-2-(4-methylthiazol-2-yl)pyrrolidine-1-carbonyl)benzamide], the pKi in experiment [1] was > 6.60. In addition, the negative-log IC50 (pIC50) in experiment [2] was < 6.00.
The like results for `Cc1coc([C@H]2CCCN2C(=O)c2cc(C(=O)N[C@@H](Cc3ccccc3)[C@H](O)[C@H]3CCCN3)cc(-c3ccccn3)c2)n1` [1-24, N-((1R,2S)-1-hydroxy-3-phenyl-1-((R)-pyrrolidin-2-yl)propan-2-yl)-3-((R)-2-(4-methyloxazol-2-yl)pyrrolidine-1-carbonyl)-5-(pyridin-2-yl)benzamide] were, in that order, > 6.60 and > 6.30.
For `Cc1csc([C@H]2CCCN2C(=O)c2cc(CF)cc(C(=O)N[C@H](Cc3ccccc3)[C@H](O)[C@H]3C[C@@H](OCc4ccccc4)CN3)c2)n1` [1-45, N-((1R,2R)-1-((2R,4R)-4-(benzyloxy)pyrrolidin-2-yl)-1-hydroxy-3-phenylpropan-2-yl)-3-(fluoromethyl)-5-((R)-2-(4-methylthiazol-2-yl)pyrrolidine-1-carbonyl)benzamide], in experiment [1], the pKi is < 6.12. Also, the pIC50 in experiment [2] was < 6.00.
As for `Cc1csc([C@H]2CCCN2C(=O)c2cc(C(=O)N[C@@H](Cc3ccccc3)[C@H](O)[C@H]3CCCN3)cc(N(C)C)c2)n1` [1-42, 3-(dimethylamino)-N-((1R,2S)-1-hydroxy-3-phenyl-1-((R)-pyrrolidin-2-yl)propan-2-yl)-5-((R)-2-(4-methylthiazol-2-yl)pyrrolidine-1-carbonyl)benzamide], in experiment [1], the pKi was 6.12 to 6.60. Also, the pIC50 in experiment [2] was < 6.00.
Consider `Cc1coc([C@H]2CCCN2C(=O)c2cccc(C(=O)N[C@@H](Cc3ccccc3)[C@H](O)[C@H]3CCCN3)c2)n1` [1-4, N-((1R,2S)-1-hydroxy-3-phenyl-1-((R)-pyrrolidin-2-yl)propan-2-yl)-3-((R)-2-(4-methyloxazol-2-yl)pyrrolidine-1-carbonyl)benzamide], for which the pKi in experiment [1] was 6.12 to 6.60. The pIC50 in experiment [2] was < 6.00.
On to `Cc1csc([C@H]2CCCN2C(=O)c2cc(C(=O)N[C@@H](Cc3ccccc3)[C@H](O)[C@H]3CCCN3)cc(N3CCC(F)(F)CC3)c2)n1` [1-46, 3-(4,4-difluoropiperidin-1-yl)-N-((1R,2S)-1-hydroxy-3-phenyl-1-((R)-pyrrolidin-2-yl)propan-2-yl)-5-((R)-2-(4-methylthiazol-2-yl)pyrrolidine-1-carbonyl)benzamide], for which the pKi in experiment [1] is 6.12 to 6.60. Besides, the pIC50 in experiment [2] is 6.00 to 6.30.
As for `C[C@@H](NC(=O)c1cc(C(=O)N[C@@H](Cc2ccccc2)[C@H](O)[C@H]2CCCN2C(=O)OC(C)(C)C)cc(N(C)S(C)(=O)=O)c1)c1ccccc1` [1-5, (R)-tert-butyl 2-((1S,2S)-1-hydroxy-2-(3-(N-methylmethylsulfonamido)-5-((R)-1-phenylethylcarbamoyl)benzamido)-3-phenylpropyl)pyrrolidine-1-carboxylate], the pKi in experiment [1] is < 6.12. Also, in experiment [2], the pIC50 was < 6.00.
The like results for `Cc1csc(CN(C)C(=O)c2cccc(C(=O)N[C@@H](Cc3ccccc3)[C@H](O)[C@H]3C[C@@H](O)CN3)c2)n1` [1-10, N1-((1R,2S)-1-hydroxy-1-((2R,4R)-4-hydroxypyrrolidin-2-yl)-3-phenylpropan-2-yl)-N3-methyl-N3-((4-methylthiazol-2-yl)methyl)isophthalamide] were, in that order, 6.12 to 6.60 and < 6.00.
Turning to `Cc1csc([C@H]2CCCN2C(=O)c2cccc(C(=O)N[C@@H](Cc3cccc(F)c3)[C@H](O)[C@H]3CCCN3)c2)n1` [1-53, N-((1R,2S)-3-(3-fluorophenyl)-1-hydroxy-1-((R)-pyrrolidin-2-yl)propan-2-yl)-3-((R)-2-(4-methylthiazol-2-yl)pyrrolidine-1-carbonyl)benzamide], the pKi in experiment [1] was > 6.60. The pIC50 in experiment [2] was 6.00 to 6.30.
For the compound `Cc1csc([C@H]2CCCN2C(=O)c2cc(C(=O)N[C@@H](Cc3cc(F)cc(F)c3)[C@H](O)[C@H]3CCCN3)ccn2)n1` [1-61, N-((1R,2S)-3-(3,5-difluorophenyl)-1-hydroxy-1-((R)-pyrrolidin-2-yl)propan-2-yl)-2-((R)-2-(4-methylthiazol-2-yl)pyrrolidine-1-carbonyl)isonicotinamide], in experiment [1], the pKi was 6.12 to 6.60.
On to `Cc1csc([C@H]2CCCN2C(=O)c2cc(C(=O)N[C@@H](Cc3ccccc3)[C@H](O)[C@H]3C[C@H](F)CN3)cc(-c3ncco3)c2)n1` [1-38, N-((1R,2S)-1-((2R,4S)-4-fluoropyrrolidin-2-yl)-1-hydroxy-3-phenylpropan-2-yl)-3-((R)-2-(4-methylthiazol-2-yl)pyrrolidine-1-carbonyl)-5-(oxazol-2-yl)benzamide], for which the negative-log Ki (pKi) in experiment [1] was > 6.60.

Values taken from patent US20120214802A1, “PYRROLIDINE COMPOUNDS WHICH INHIBIT BETA-SECRETASE ACTIVITY AND METHODS OF USE THEREOF” (priority 2009, published 2012).
